Three molecules from ChEMBL document CHEMBL1131551, “Carbocyclic frenolicin analogues: novel anticoccidial agents” (1998) can be followed below.

Molecules are shown by their SMILES.

This assay concerns Eimeria. Kind of assay: In vitro ability to disrupt infectious activity of Eimeria sporozoites expressed as potency relative to frenolicin (B=1). It is filed as functional.
In turn, `O=C1CC2CCC3=C(C(=O)c4cccc(O)c4C3=O)C2O1` (stereo not drawn) had a Relative potency of 0.033.

`O=C1C[C@H]2CCC3=C(C(=O)c4ccccc4C3=O)[C@H]2O1` came in with a Relative potency of 0.167.

`CC(=O)OC1CCCC2=C1C(=O)c1ccccc1C2=O` (stereo not drawn) returned a Relative potency of 0.001.
